Measurements as given in patent publication US9107879B1, “Methods of increasing the cytotoxicity of chemotherapeutic agents with multisubstrate inhibitors of histone, protein-lys, polyamine acetylation, and polyamine metabolism” (Vanderbilt University, priority 2010, dated 2015).

Tests used:
H358 lung cancer cells = experiment: [3H]-thymidine incorporation DNA synthesis assay; format: cell-based; conditions: data not shown
Protocol: (A) Structures of 1a, and the acetylated side chain of a lysine residue within the polypeptide chain of a protein targeted by the acetylating enzyme (R1 and R2 are the main chain elements on both sides of the lysyl residue). (B) [^3H]-thymidine incorporation into DNA of H358 cells pulsed for 6 hrs at three different time points after the addition of increasing concentrations of 1a, i.e., at 6-12 hrs (12 hr curve), at 18-24 hours (24 hr curve), or at 42-48 hrs (48 hr curve). Incorporation is represented as a percentage relative to control (untreated) cells. (C) Cell cycle analysis of propidium iodide-stained cells harvested at various times after addition of 50 μM 1a. % of cells in G1, S, and G2 represents the average of two independent profiles. (D) Western analysis of histone H3 lysine 9 acetylation, histone H3 lysine 56 acetylation, histone H3 lysine 9 methylation, and total histone H3, before “c” or at the indicated times after addition of 50 μM 1a. Each lane represents 60 μg cellular protein.
Control cells were left untreated. […] Control cells were left untreated.
Cells were either labeled immediately before treatment (starting DNA synthesis rate), or subjected to the indicated treatments and then pulsed on successive days until day 4. DNA synthesis is represented as the percent of starting DNA synthesis rate. Viability was determined for each treatment condition 24 hours post-start of treatment by the trypan blue exclusion assay, with percentages of viable cells indicated to the right of the graph.
H358 cells (2,000/well) in 96-well plates were treated with 1, 10 or 50 μM of spd-1a, spd-2a, spd-3a, spm3, or spm2 for 12 hours. Triplicate wells of cells were pulsed 6 hours with 0.5 μCi [^3H]-thymidine (NEN, Boston Mass.) post-start of drug treatment, and harvested onto filter paper using a Brandel Harvester and subjected to scintillation counting. Untreated cells were pulsed 0-6 hrs to establish the initial rate of incorporation.
Cells were plated in 96-well plates (2000 cells per well to insure conditions for exponential growth for untreated cells over the time course of the experiment) and exposed to the following treatments: 1a (50 μM); camptothecin (Sigma, St Louis, Mo. 5 nM, 18 hours); cisplatin (Platinol, obtained through local pharmacies, 2 μM, 1 hour 15 minutes), 5-fluorouracil (5FU, Adrucil™, obtained through local pharmacies, 2 μM, 1 hour 15 minutes), Taxotere (provided by the late Dr. Pierre Potier, 5 nM, 18 hours). UVC treatment (40 J/m^2) using a Stratalinker™, Stratagene, La Jolla, Calif.) was carried using medium lacking phenol red. At 0-6 hr, 18-24 hr (day 1), 42-48 hr […], 66-72 hr (day 3), and 90-96 hr (day 4) post-start of treatment, triplicate wells were incubated with 0.5 μCi [^3H]-thymidine (NEN, Boston Mass.), harvested onto filter paper, and subjected to scintillation counting. Trypan blue exclusion assays for cell membrane integrity were carried out as known in the art.
The present inventors used [^3H]-thymidine incorporation assays to examine DNA synthesis in H358 lung cancer cells in the presence of varying concentrations of 1a. Cells were pulsed for 6 hours with [^3H]-thymidine at three different time points after the addition of 1a (i.e., at 6-12 hours, at 18-24 hours, and at 42-48 hours). The incorporation of [^3H]-thymidine into DNA decreased with increasing concentrations of 1a at all three time points, with the maximal effect occurring with the 6-12 hour pulse (FIG. 2B).
We then used [^3H]-thymidine incorporation assays to examine DNA synthesis in H358 lung cancer cells in the presence of 1a alone, or together with an 18 hour exposure to the DNA damaging drug, camptothecin (CPT), a plant alkaloid from which an important class of topoisomerase I-targeted chemotherapeutic agents (Hycamtin [topotecan] and Camptosar [irinotecan]) has been derived (Garcia-Carbonero, et al, 2002, Clin Cancer Res 8: 641-61). […]

[1] = system: endogenous HATs associated with solubilized chromatin; conditions: literature (Bandyopadhyay et al 2009; Parello et al. 1990); cited from earlier work
MCF7 breast cancer cells = conditions: single agent; DFMO 100 μM, 5FU 2 μM 18 hrs, doxorubicin 100 nM 18 hr; spd-2a with no siRNA or control siRNA
Protocol: (A) [^3H]-thymidine incorporation into DNA of H358 cells (left panel) or MCF-7 cells (right panel) during a 6 hour pulse ending at the indicated time points after initiation of treatment. Treatments were 50 μM 1a alone, 5 nM camptothecin alone (CPT, 18 hours), 50 μM 1a+5 nm CPT (18 hours). Control cells were left untreated. (B) 2-day 96-well viability assays of H358 cells (left panel) or MCF-7 cells (right panel) grown in presence of increasing concentrations of 1a (continuous), with or without an 18-hour treatment with 5 nM camptothecin (CPT). Cell viability, represented as a percent of untreated cell viability (i.e., no 1a, no CPT), was determined 2 days post-start of treatment by the MTS bioconversion assay (MTS=(3-(4,5′-dimethylthiazol-2-yl)-5-(3-carboxymethoxylphenyl-2-(4-sulfophenyl)-2H-tetrazolium salt). Each data point represents the average of triplicate wells. Assays were carried out under conditions such that untreated cells remained in exponential growth. (C) [^3H]-thymidine incorporation into DNA of H358 cells carried out as in part “A”. Treatment consisted of 1a alone (50 μM), or cisplatin (2 μM, 1 hour, 15 minutes) alone or together with 1a (Panel 1); or UVC (40 J/m^2), alone or together with 1a (Panel 2); or 5-fluorouracil (5FU, 2 μM, 18 hours) alone or together with 1a (Panel 3), or Taxotere™ (5 nM, 18 hours), alone or together with 1a (Panel 4). Control cells were left untreated. Symbols are as follows: (-◯-) untreated control; (-●-) 50 μM 1a, (-∇-) drug or UVC alone; (-▾-) combination 1a+drug or UVC.
Viability was measured 3 days after the start of treatment and is expressed as a percentage of control (untreated) cell viability.
Each point is average of triplicates.
Date of exp: 7-17-2010; located p.21 in Hat notebook: KB-2 (2010-2011).
Cells were plated in 96-well plates (3000 cells per well) and incubated 18 hours with or without 5 nM camptothecin (Sigma, St Louis, Mo.). Triplicate wells were then treated with varying doses of 1a (from 0-50 μM). Control cells received neither 1a nor camptothecin. 2-day viability was determined by the MTS assay as previously (Saadatmandi et al., 2002, Cancer Gene Therapy, 9: 830-9) and expressed as a percentage of control cell viability.
The present inventors carried out 96-well viability assays as we have previously described (Saadatmandi et al, Cancer Gene Therapy (2002) 9:830-9), in which MCF7 breast cancer cells were plated at 3000 cells per well. After overnight attachment, triplicate wells were treated with increasing doses of inhibitor 1a. Control wells were left untreated. After 3 days, cell viability was measured by the MTS assay, which measures the bioconversion of an uncolored substrate to a colored formazan derivative, and is proportional to cell number. […]

γ-H2A.X in H358 cells = experiment: double strand break / gamma-H2A.X Western and co-immunoprecipitation; format: cell-based; conditions: 18 hours post-start; 1a 50 μM, 5FU 2 μM, cisplatin 2 μM, camptothecin 5 nM
Protocol: Also shown are controls for no treatment (“c” minus 1a) or treatment with 1a only (“c” plus 1a). Each lane represents 60 μg protein. […] Each lane represents 60 μg protein.
To measure DSB repair, cells were incubated for 1 hour with 10 μM camptothecin to induce DSBs, followed by incubation in the presence or absence of 50 μM 1a. At fixed times, histones were prepared by extraction in 0.2M H2SO4 as described previously and 50 μg extract was analyzed by 12% SDS-PAGE followed Western analysis as described previously, using rabbit polyclonal anti-γ-H2A.X [phosphor ser 139] (Novus Biologicals, Littleton, Colo.) or anti-H3 (Upstate Biotechnology, Inc, Lake Placid, N.Y.). Band intensities were quantitated digitally. To study acetylation of γ-H2A.X, we carried out co-immunoprecipitation analysis using 50 μg extract protein in immunoprecipitation buffer (10 mM sodium phosphate pH 7, 0.15 M NaCl, 0.1% SDS, 1% NP40, 1% sodium deoxycholate, aprotinin, 1 mM PMSF, complete protease inhibitors (Roche) using immobilized anti-acetyl-lysine (Millipore, Temecula, Calif.) in the immunoprecipitation step. The immunoprecipitated material was then analyzed as for Western analysis using anti γ-H2A.X.
Double strand breaks (DSBs) can be formed by a variety of DNA damaging agents, including camptothecin, cisplatin, 5FU, and UVC radiation (Avemann K, et al., 1988, Mol Cell Biol, 8: 3026-34; Bogdanov K V, et al. 1997, Br J Haematol, 98:869-72; Pavon M A, et al., Int J Cancer, 2008, 123:1068-79) implying that DSB repair may play a role in reducing their cellular toxicity. To examine how 1a treatment affects DSB repair in H358 cells we made use of the fact that the histone variant, H2A.X becomes phosphorylated at sites of double strand breaks (denoted γ-H2A.X), and can be detected by immunoblot analysis of acid extracted cells (Rogaku E P, et al., 1999, J Cell Biol, 146:905-16). […] Total H3 levels and H2A.X levels (control) are unaffected by these treatments (FIG. 4B). […]

[2] = system: MDA MB-435 breast cancer cells; experiment: 72 hr viability assay; format: cell-based; conditions: DFMO 100 μM, 5FU 2 μM 18 hrs, doxorubicin 100 nM 18 hr
DLD-1 colon cancer = experiment: subcutaneous DLD-1 tumor model in nude mice; format: in vivo, nude mouse; conditions: DFMO alone, intratumoral, 2 mg/kg
Protocol: Tumors were initiated By subcutaneous implantation of […] DLD-1 colon cancer cells. […] Tumors were measured and volumes calculated as in FIG. 14.
Tumors were initiated by injecting 10^6 DLD-1 cells (from ATCC) per mouse (female nude mouse, 4-5 weeks, Harlan Labs) subcutaneously in the flank. (A) When the average tumor size reached 26 mm^3, animals were randomized into 2 groups (3 per group). One group was left untreated and served as the control (-●-). […] Tumors were measured bidirectionally at 2-3 day intervals and tumor volumes were calculated (v=½L×w^2). A paired t-test was used to evaluate the significance of the differences between the two groups of animals. […] (B) Tumors were initiated as in part (A). When tumors reached an average size of about 30 mm^3, animals were randomized into three groups of 2 animals each. The control group (-●-) received no treatment. The DFMO group (-▪-) received intratumoral injections of DFMO (2 mg/kg) on days 1, 7, 9 (5 PM), and 2, 8, 10 (9 AM, 5 PM). […] Tumors were measured and volumes calculated as in part (A). A paired t-test was used to evaluate the significance of the difference between the curves.

For CC(C)(COP(=O)(O)OP(=O)(O)OC[C@H]1O[C@@H](n2cnc3c(N)ncnc32)[C@H](O)[C@@H]1OP(=O)(O)O)[C@@H](O)C(=O)NCCC(=O)NCCSCC(=O)NCCCCNCCCN [1b, spermidine [N8]-CoA], the “inhibitory activity against DNA synthesis in vivo, isomers compared” value (H358 lung cancer cells) is listed as “comparable inhibitory activity” and the “inhibitory activity against endogenous HAT” value [1] is listed as “comparable inhibitory activity”.
For O=c1[nH]cc(F)c(=O)[nH]1 [5FU, 5-Fluorouracil], the “3-day / 72 hr cell viability, single agent” value (“3-day / 72 hr cell viability” for short) (MCF7 breast cancer cells) was “minimal effects”, the “γ-H2A.X level, single agent” value (γ-H2A.X in H358 cells) was “weakly detectable” and the “72 hr cell viability, single agent” value [2] was “minimal effects”.
With COc1cccc2c1C(=O)c1c(O)c3c(c(O)c1C2=O)C[C@@](O)(C(=O)CO)C[C@@H]3O[C@H]1C[C@H](N)[C@H](O)[C@H](C)O1 [doxorubicin] the “3-day / 72 hr cell viability” value (MCF7 breast cancer cells) was “minimal effects” and the “72 hr cell viability, single agent” value [2] was “minimal effects”.
With N.N.[Cl][Pt][Cl] [cisplatin, cis-diamminedichloro-platinium] the “γ-H2A.X level, single agent” value (γ-H2A.X in H358 cells) was “weakly detectable”.
In the case of NCCC[C@](N)(C(=O)O)C(F)F [DFMO, α-difluoromethylornithine], the “3-day / 72 hr cell viability” value (MCF7 breast cancer cells) is reported as “ineffective”, the “tumor volume difference versus control” value (DLD-1 colon cancer) is reported as “not significant” and the “72 hr cell viability, single agent” value [2] is reported as “ineffective”.
